Source: patent US7375232B2, “Ortho-heterocyclic substituted aryl amides for controlling invertebrate pests” (E.I. du Pont de Nemours and Company, priority 2001, dated 2008)

**Q.** With `Cc1cc(Cl)cc(-n2cccn2)c1NC(=O)c1cc(C(F)(F)F)nn1-c1ccccc1Cl` [Compound 16] as the compound, how does the melting point read?
**A.** The melting point was 87 to 89 °C.
